What was measured:
[1] = RP-HPLC determination of capacity factors and log Po/w (Supelcosil LC-ABZ, MOPS buffer pH 7.4/methanol); conditions: for Capacity factors log k’40: 40% methanol; for Capacity factors log k’40 / Capacity factors log k’50 / Capacity factors log k’60 / Capacity factors log k’70: MOPS buffer pH 7.4; for Capacity factors log k’50: 50% methanol; for Capacity factors log k’60: 60% methanol; for Capacity factors log k’70: 70% methanol; for Capacity factors log k’0: extrapolated to 0% methanol; for chromatographic logP: pH 7.4, RP-HPLC log Po/w; for log k’0: capacity factor extrapolated to 0% methanol; for RP-HPLC log Po/w: from log k’0 by Equation (1)
Description: The RP-HPLC methods of Minick and Lombardo [53] were considered for estimating the n-octanol/water partition coefficients (log Po/w) of QdO. The inorganic salts and the reference compounds were, at least, of analytical grade (Sigma Aldrich and Fluka) and used without further purification. HPLC-grade methanol, n-octanol (Sigma-Aldrich) and bi-distilled water were used to prepare the mobile phase.
The other chromatographic conditions were: flow 1.0 mL/min^−1; isocratic elution, UV-visible detector set at the wavelength with maximum absorbance (260 and 210 nm). The test solutions were 0.3 mM in the desired compound. All the experiments were performed at 25 ± 2 °C at least twice.
The capacity factors were calculated according to Equation (2): […]
In order to judge if the experimentally measured log k’0 can be used to predict the log Po/w value, a calibration curve was created with the capacity factors of the reference compounds and a linear regression equation between the log Po/w and log k’0 was determined.
The robustness of the model and its predictivity were evaluated by the leave-one-out (LOO) cross-validation procedure. According to this procedure, the log Po/w value of each compound in the reference data set is predicted by the equations derived from all the other compounds except the predicted one. At the end of this procedure two values are available for each reference compound, the reference shake-flask log Po/w value (yi) and the predicted one (ŷi). […] The regression coefficient (R^2LOO) is defined by Equation (5): [drawing 8] (5) where [drawing 9] is the mean of the reference shake-flask log Po/w value and n is the number of reference compounds. A high value of R^2LOO indicates a good predictive ability of the model. The root mean squared error in prediction (RMSELOO) is calculated with Equation (6): [drawing 10] (6)

[2] = design: method as in earlier work; conditions: reduction peak potential; cited from earlier work
[3] = reference compounds, leave-one-out cross-validation

Row | Structure (SMILES) | Capacity factors log k’40 [1] | Capacity factors log k’50 [1] | Capacity factors log k’60 [1] | Capacity factors log k’70 [1] | Capacity factors log k’0 ([1]; pH 7.4) | chromatographic logP [1] | LOO-predicted RP-HPLC log Po/w ([1]; pH 7.4) | Epc,1 [2] | log k’0 ([1]; reference compounds, pH 7.4) | RP-HPLC log Po/w ([1]; reference compounds) | LOO-predicted RP-HPLC log Po/w [1, 3]
1 | Cc1ccc2c(c1)[n+]([O-])c(C(=O)NCc1ccccc1)c(C)[n+]2[O-] [Compound 11] | 0.35 | 0.07 | −0.24 | −0.56 | 1.58 | 1.85 |  | −1.658 |  |  | 
2 | Cc1c(C(=O)NCc2ccc(Br)cc2)[n+]([O-])c2cc(Cl)c(Cl)cc2[n+]1[O-] [Compound 21] | 1.60 | 1.15 | 0.65 | 0.19 | 3.51 | 3.78 |  | −1.363 |  |  | 
3 | Cc1c(C(=O)NCC(c2ccccc2)c2ccccc2)[n+]([O-])c2cc(Cl)c(Cl)cc2[n+]1[O-] [Compound 29] | 1.78 | 1.31 | 0.76 | 0.25 | 3.86 | 4.12 |  | −1.410 |  |  | 
4 | Cc1ccc2c(c1)[n+]([O-])c(C(=O)NCC(c1ccccc1)c1ccccc1)c(C)[n+]2[O-] [Compound 27] | 1.21 | 0.80 | 0.33 | −0.12 | 3.02 | 3.28 |  | −1.640 |  |  | 
5 | Cc1c(C(=O)NCCc2ccccc2)[n+]([O-])c2cc(Cl)c(Cl)cc2[n+]1[O-] [Compound 17] | 1.07 | 0.74 | 0.34 | −0.06 | 2.60 | 2.87 |  | −1.387 |  |  | 
6 | CC(=O)Nc1ccccc1 [Compound 3, Acetanilide, reference compound] |  |  |  |  |  |  | 1.19 |  | 0.88 | 1.15 | 
7 | Brc1ccccc1 [Compound 7, Bromobenzene, reference compound] |  |  |  |  |  |  |  |  | 2.84 |  | 
8 | Cc1c(C(=O)NCC(c2ccccc2)c2ccccc2)[n+]([O-])c2cc(Cl)ccc2[n+]1[O-] [Compound 28] | 1.38 | 0.91 | 0.38 | −0.13 | 3.42 | 3.69 |  | −1.491 |  |  | 
9 | c1ccccc1 [Compound 5, Benzene, reference compound] |  |  |  |  |  |  |  |  | 1.87 | 2.14 | 
10 | Nc1ccccc1 [Compound 2, Aniline, reference compound] |  |  |  |  |  |  |  |  | 0.67 | 0.94 | 0.96
11 | Cc1ccc(CNC(=O)c2c(C)[n+]([O-])c3ccc(C)cc3[n+]2[O-])cc1 [Compound 23] | 0.66 | 0.34 | −0.01 | −0.36 | 2.02 | 2.29 |  | −1.590 |  |  | 
12 | Cc1c(C(=O)NCC(c2ccccc2)c2ccccc2)[n+]([O-])c2ccccc2[n+]1[O-] [Compound 26] | 1.06 | 0.62 | 0.14 | −0.33 | 2.92 | 3.18 |  | −1.591 |  |  | 
13 | Clc1ccccc1 [Compound 6, Chlorobenzene, reference compound] |  |  |  |  |  |  |  |  | 2.62 | 2.89 | 2.90
14 | Cc1c(C(=O)NCc2ccccc2)[n+]([O-])c2ccccc2[n+]1[O-] [Compound 10] | 0.28 | −0.05 | −0.34 | −0.64 | 1.49 | 1.76 |  |  |  |  | 
15 | c1ccc2ccccc2c1 [Compound 8, Naphthalene, reference compound] |  |  |  |  |  |  |  |  | 3.15 | 3.42 | 

The next lines start with results.

Row | Capacity factors log k’40 [1] | Capacity factors log k’50 [1] | Capacity factors log k’60 [1] | Capacity factors log k’70 [1] | Capacity factors log k’0 ([1]; pH 7.4) | chromatographic logP [1] | LOO-predicted RP-HPLC log Po/w ([1]; pH 7.4) | Structure (SMILES) | Epc,1 [2] | log k’0 ([1]; reference compounds, pH 7.4) | RP-HPLC log Po/w ([1]; reference compounds) | LOO-predicted RP-HPLC log Po/w [1, 3]
16 | 0.65 | 0.30 | −0.05 | −0.36 | 1.98 | 2.25 |  | Cc1c(C(=O)NCc2ccccc2)[n+]([O-])c2cc(Cl)ccc2[n+]1[O-] [Compound 12] | −1.482 |  |  | 
17 | 0.62 | 0.25 | −0.10 | −0.44 | 2.02 | 2.29 |  | Cc1ccc(CNC(=O)c2c(C)[n+]([O-])c3ccccc3[n+]2[O-])cc1 [Compound 22] | −1.580 |  |  | 
18 |  |  |  |  |  |  | 1.52 | CC(=O)c1ccccc1 [Compound 4, Acetophenone, reference compound] |  | 1.27 | 1.54 | 
19 | 1.22 | 0.84 | 0.42 | 0.02 | 2.83 | 3.09 |  | Cc1c(C(=O)NCc2ccc(Br)cc2)[n+]([O-])c2cc(Cl)ccc2[n+]1[O-] [Compound 20] | −1.445 |  |  | 
20 | 1.33 | 0.93 | 0.54 | 0.14 | 2.91 | 3.18 |  | Cc1ccc(CNC(=O)c2c(C)[n+]([O-])c3cc(Cl)c(Cl)cc3[n+]2[O-])cc1 [Compound 25] |  |  |  | 
21 | 0.36 | 0.05 | −0.26 | −0.58 | 1.61 | 1.88 |  | Cc1c(C(=O)NCCc2ccccc2)[n+]([O-])c2ccccc2[n+]1[O-] [Compound 14] | −1.625 |  |  | 
22 | 0.98 | 0.66 | 0.27 | −0.11 | 2.46 | 2.72 |  | Cc1c(C(=O)NCc2ccccc2)[n+]([O-])c2cc(Cl)c(Cl)cc2[n+]1[O-] [Compound 13] | −1.211 |  |  | 
23 | 0.93 | 0.54 | 0.15 | −0.25 | 2.51 | 2.77 |  | Cc1ccc(CNC(=O)c2c(C)[n+]([O-])c3ccc(Cl)cc3[n+]2[O-])cc1 [Compound 24] | −1.489 |  |  | 
24 | 0.69 | 0.36 | 0.00 | −0.37 | 2.11 | 2.38 |  | Cc1c(C(=O)NCCc2ccccc2)[n+]([O-])c2cc(Cl)ccc2[n+]1[O-] [Compound 16] | −1.525 |  |  | 

— article PMC6264295, “Studies on Log Po/w of Quinoxaline di-N-Oxides: A Comparison of RP-HPLC Experimental and Predictive Approaches” (Molecules, 2011)
